For 29 molecules, IC50 and solubility results are on record in patent US11766443B2, “Cyclopentathiophene carboxamide derivatives as platelet activating factor receptor antagonists” (Boehringer Ingelheim International GmbH, priority 2021, dated 2023).

Each structure is given as a SMILES string. ≈ marks a conversion by molar mass, not a printed value.

For one series, the target named is T1, human PAFR (Homo sapiens, UniProt P25105).
T1 construct: expressed in transfected cells; host or cells: HEK293
T1 sequence (P25105 whole entry): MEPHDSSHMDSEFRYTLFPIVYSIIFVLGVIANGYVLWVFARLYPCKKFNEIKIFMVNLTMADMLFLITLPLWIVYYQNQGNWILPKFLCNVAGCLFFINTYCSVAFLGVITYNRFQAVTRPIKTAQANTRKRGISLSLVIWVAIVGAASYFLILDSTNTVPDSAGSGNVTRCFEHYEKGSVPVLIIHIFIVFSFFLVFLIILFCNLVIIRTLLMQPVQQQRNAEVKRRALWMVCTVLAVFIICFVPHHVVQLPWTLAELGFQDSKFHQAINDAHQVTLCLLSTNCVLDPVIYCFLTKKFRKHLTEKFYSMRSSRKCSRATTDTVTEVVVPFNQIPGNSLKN
In words: cellular HTRF IP1 endpoint assay: inhibition of PAFR activation by PAF C-16 ligand. It counts as cell-based. The conditions noted are these: HEK293 cells overexpressing human PAFR; PAF ligand 11 nM. Here is the method: The ability of compounds of formula (I.0) to inhibit the activation of the PAF receptor (PAFR) by the PAF C-16 ligand (PAF) is determined using the following cellular HTRF IP1 assay (IP1 Gq assay kit from Cisbio, Cat. no.: 62IP1APEJ) in assay buffer (1×HBSS, 20 mM Hepes, pH 7.4, 50 mM LiCl and containing 0.1% (w/v) BSA):
HEK293 cells overexpressing human PAFR (produced in-house) are seeded into a Poly-D-Lysine coated 384 well white cell culture microtiter assay plate with lid (15.000 cells per well). Subsequently, the plates are incubated over night at 37° C./5% CO2. On the next day, cells are being washed and subsequently, various concentrations of the test compounds (compounds in 100% DMSO; final concentration of DMSO in wells is 1%) are added to the assay plate via Echo 555 acoustic liquid handler. Plates are then incubated with lid for 90 minutes at 37° C./5% CO2. Thereafter, PAF ligand (Cayman Chemical Company, Item no.: 60900) is added at a final concentration of 11 nM. Plates are then incubated with lid for 60 minutes at 37° C./5% CO2. Then, 5 μl per well of Anti-IP1-Anti body-Cryptate solution and 5 μL per well of IP1-d2 solution are added to all wells of the plate and the plate is incubated for another 60 minutes light protected at room temperature. The emissions at 620 nm and 665 nm (Excitation wavelength: 320 nm) are measured using an Envision Reader (PerkinElmer).
On the technique in general: TR-FRET usually uses a lanthanide donor and a delayed reading to cut background.

A short description of series [1]: aqueous solubility in buffer (from DMSO stock, 24 h shaking, LC-UV). To be noted: pH 2.2, aqueous buffer, kinetic from dmso stock.
Experimental: The aqueous solubility of the test compound is determined by comparing the amount dissolved in buffer to the amount in an ACN/water (1/1) solution. Starting from a 10 mM DMSO stock solution aliquots are diluted with ACN/water (1/1) or buffer, respectively. After 24 h of shaking, the solutions are filtrated and analyzed by LC-UV. The amount dissolved in buffer is compared to the amount in the ACN solution.
Solubility will usually be measured from 0.001 to 0.125 mg/mL at a DMSO concentration of 2.5%. If more than 90% of the compound is dissolved in buffer, the value is marked with “>”.

In general, IC50 refers to the midpoint of a concentration-inhibition curve. A low value points to higher potency. In general, solubility refers to how much of the substance goes into solution per volume. Consider `Cc1nnc2n1-c1sc3c(c1C(c1ccccc1Cl)NC2)CC(C(=O)N1CCOCC1)C3` (racemic) [Example 1, 9-(2-Chlorophenyl)-3-methyl-13-(morpholine-4-carbonyl)-16-thia-2,4,5,8-tetraazatetracyclo[8.6.0.0^2,6.0^11,15]-hexadeca-1(10),3,5,11(15)-tetraene], for which 102 nM corresponded to half-maximal inhibition at human PAFR (IC50). In series [1], this molecule returned a solubility at 24 h above 115 µg/mL.

On human PAFR, `CCc1ccccc1C1NCc2nnc(C)n2-c2sc3c(c21)CC(C(=O)N1CCOCC1)C3` (racemic) [Example 53, 9-(2-Ethylphenyl)-3-methyl-13-(morpholine-4-carbonyl)-16-thia-2,4,5,8-tetraazatetracyclo[8.6.0.0^2,6.0^11,15]hexadeca-1(10),3,5,11(15)-tetraene] returned an IC50 of 297 nM. The same molecule showed a solubility at 24 h in series [1] of 116 µg/mL (≈ 250 µM).

In the case of `Cc1nnc2n1-c1sc3c(c1C(c1ccccc1F)NC2)CC(C(=O)N1CCOCC1)C3` (racemic) [Example 55, 9-(2-Fluorophenyl)-3-methyl-13-(morpholine-4-carbonyl)-16-thia-2,4,5,8-tetraazatetracyclo[8.6.0.0^2,6.0^11,15]hexadeca-1(10),3,5,11(15)-tetraene], inhibition at human PAFR was half-maximal at 240 nM (IC50). The molecule also showed a solubility at 24 h in series [1] above 112 µg/mL.

For the molecule `Cc1nnc2n1-c1sc3c(c1C(c1ccccc1Br)NC2)CC(C(=O)N1CCOCC1)C3` (racemic) [Example 57, 9-(2-Bromophenyl)-3-methyl-13-(morpholine-4-carbonyl)-16-thia-2,4,5,8-tetraazatetracyclo[8.6.0.0^2,6.0^11,15]hexadeca-1(10),3,5,11(15)-tetraene], on human PAFR, half-maximal inhibition (IC50) was put at 161 nM. The solubility at 24 h in series [1] was above 128 µg/mL.

Consider `Cc1nnc2n1-c1sc3c(c1C(c1ccccc1C1CC1)NC2)CC(C(=O)N1CCOCC1)C3` (racemic) [Example 59, 9-(2-Cyclopropylphenyl)-3-methyl-13-(morpholine-4-carbonyl)-16-thia-2,4,5,8-tetraazatetracyclo[8.6.0.0^2,6.0^11,15]-hexadeca-1(10),3,5,11(15)-tetraene], for which the IC50 against human PAFR was above 322 nM. Further, the solubility at 24 h in series [1] is above 119 µg/mL.

As to `Cc1nnc2n1-c1sc3c(c1C(c1ccccc1CO)NC2)CC(C(=O)N1CCOCC1)C3` (racemic) [Example 60, {2-[3-Methyl-13-(morpholine-4-carbonyl)-16-thia-2,4,5,8-tetraazatetracyclo[8.6.0.0^2,6.0^11,15]hexadeca-1(10),3,5,11(15)-tetraen-9-yl]phenyl}methanol], the IC50 at human PAFR was above 322 nM.

Regarding `Cc1nnc2n1-c1sc3c(c1C(c1ccccc1O)NC2)CC(C(=O)N1CCOCC1)C3` (racemic) [Example 61, 2-[3-Methyl-13-(morpholine-4-carbonyl)-16-thia-2,4,5,8-tetraazatetracyclo[8.6.0.0^2,6.0^11,15]hexadeca-1(10),3,5,11(15)-tetraen-9-yl]phenol], the IC50 against human PAFR is above 322 nM. The molecule also came in with a solubility at 24 h in series [1] above 113 µg/mL.

`CSc1ccccc1C1NCc2nnc(C)n2-c2sc3c(c21)C[C@H](C(=O)N1CCOCC1)C3` (mixture of isomers) [Example 79, 3-Methyl-9-[2-(methylsulfanyl)phenyl]-13-(morpholine-4-carbonyl)-16-thia-2,4,5,8-tetraazatetracyclo[8.6.0.0^2,6.0^11,15]hexadeca-1(10),3,5,11(15)-tetraene] returned an IC50 against human PAFR of 235 nM. Besides, the solubility at 24 h in series [1] is above 119 µg/mL.

`CCCc1nnc2n1-c1sc3c(c1[C@@H](c1ccccc1Cl)NC2)CC(C(=O)N1CCOCC1)C3` (stereo in doubt) [Example 80, 9-(2-Chlorophenyl)-13-(morpholine-4-carbonyl)-3-propyl-16-thia-2,4,5,8-tetraazatetracyclo[8.6.0.0^2,6.0^11,15]hexadeca-1(10),3,5,11(15)-tetraene] displayed an IC50 on human PAFR of 110 nM. Besides, in series [1], the solubility at 24 h was above 104 µg/mL.

On to `Cc1nnc2n1-c1sc3c(c1[C@@H](c1ccccc1Cl)NC2)C[C@H](C(=O)N1CCOCC1)C3` [Example 3, (9S,13S)-9-(2-chlorophenyl)-3-methyl-13-(morpholine-4-carbonyl)-16-thia-2,4,5,8-tetraazatetracyclo[8.6.0.0^2,6.0^11,15]-hexadeca-1(10),3,5,11(15)-tetraene], for which the IC50 against human PAFR turned out to be 423 nM. This molecule also registered a solubility at 24 h in series [1] above 118 µg/mL.

As for `Cc1nnc2n1-c1sc3c(c1[C@H](c1ccccc1Cl)NC2)C[C@H](C(=O)N1CCO[C@@H](C)C1)C3` [Example 4, (9R,13S)-9-(2-Chlorophenyl)-3-methyl-13-[(2S)-2-methylmorpholine-4-carbonyl]-16-thia-2,4,5,8-tetraazatetracyclo-[8.6.0.0^2,6.0^11,15]hexadeca-1(10)3,5,11(15)-tetraene], it took 6.8 nM to reach half-maximal inhibition on human PAFR (IC50). Moreover, the solubility at 24 h in series [1] was above 113 µg/mL.

In turn, `Cc1nnc2n1-c1sc3c(c1[C@H](c1ccccc1Cl)NC2)C[C@H](C(=O)N1C[C@@H](C)O[C@H](C)C1)C3` [Example 5] gave a concentration for half-maximal inhibition (IC50) against human PAFR of 8.2 nM. Moreover, the solubility at 24 h in series [1] worked out at 95 µg/mL (≈ 191 µM).

In the case of `Cc1nnc2n1-c1sc3c(c1[C@H](c1ccccc1Cl)NC2)C[C@H](C(=O)N1C[C@H](C)O[C@@H](C)C1)C3` [Example 6], on human PAFR, the half-inhibitory concentration (IC50) came to 11 nM. Further, the solubility at 24 h in series [1] is above 112 µg/mL.

The molecule `Cc1nnc2n1-c1sc3c(c1[C@H](c1ccccc1Cl)NC2)C[C@H](C(=O)NCc1ccc(C(F)(F)F)nc1)C3` [Example 7] had an IC50 against human PAFR of 3.6 nM. This molecule came in with a solubility at 24 h in series [1] of 130 µg/mL (≈ 233 µM).

`Cc1nnc2n1-c1sc3c(c1[C@@H](c1ccccc1Cl)NC2)C[C@H](C(=O)NCCOC(F)(F)F)C3` [Example 8] returned an IC50 on human PAFR of 55 nM. This molecule came in with a solubility at 24 h in series [1] above 121 µg/mL.

Regarding `Cc1nnc2n1-c1sc3c(c1[C@@H](c1ccccc1Cl)NC2)C[C@H](C(=O)NC1CCC1)C3` [Example 9], at human PAFR, 34 nM corresponded to half-maximal inhibition (IC50). In series [1], this molecule registered a solubility at 24 h above 105 µg/mL.

`Cc1nnc2n1-c1sc3c(c1[C@H](c1ccccc1Cl)NC2)C[C@H](C(=O)NC1(c2ccc(Cl)cn2)CC1)C3` [Example 10] had an IC50 on human PAFR of 1.3 nM. The solubility at 24 h in series [1] was above 140 µg/mL.

Molecule `Cc1nnc2n1-c1sc3c(c1[C@@H](c1ccccc1Cl)NC2)C[C@H](C(=O)NCc1ccc(OC(F)F)nc1)C3` [Example 11] showed an IC50 on human PAFR of 53 nM. Further, the solubility at 24 h in series [1] was 105 µg/mL (≈ 189 µM).

For `Cc1nnc2n1-c1sc3c(c1C(c1ccc(Cl)cc1)NC2)CC(C(=O)N1CCOCC1)C3` (stereo not shown) [Example 52, 9-(4-Chlorophenyl)-3-methyl-13-(morpholine-4-carbonyl)-16-thia-2,4,5,8-tetraazatetracyclo[8.6.0.0^2,6.0^11,15]hexadeca-1(10),3,5,11(15)-tetraene], at human PAFR, the midpoint of inhibition, the IC50, lay at 283 nM.

Turning to `COc1ccccc1C1NCc2nnc(C)n2-c2sc3c(c21)CC(C(=O)N1CCOCC1)C3` (stereo not shown) [Example 54, 9-(2-Methoxyphenyl)-3-methyl-13-(morpholine-4-carbonyl)-16-thia-2,4,5,8-tetraazatetracyclo[8.6.0.0^2,6.0^11,15]-hexadeca-1(10),3,5,11(15)-tetraene], in series [1], the solubility at 24 h came out at 49 µg/mL (≈ 105 µM).

In the case of `Cc1nnc2n1-c1sc3c(c1C(c1ccccc1C(F)(F)F)NC2)CC(C(=O)N1CCOCC1)C3` (stereo not shown) [Example 56, 3-Methyl-13-(morpholine-4-carbonyl)-9-[2-(trifluoromethyl)phenyl]-16-thia-2,4,5,8-tetraazatetracyclo[8.6.0.0^2,6.0^11,15]-hexadeca-1(10),3,5,11(15)-tetraene], in series [1], the solubility at 24 h is above 126 µg/mL.

Turning to `Cc1nnc2n1-c1sc3c(c1C(c1cc(F)cc(F)c1)NC2)CC(C(=O)N1CCOCC1)C3` (stereo not shown) [Example 58, 9-(3,5-Difluorophenyl)-3-methyl-13-(morpholine-4-carbonyl)-16-thia-2,4,5,8-tetraazatetracyclo[8.6.0.0^2,6.0^11,15]-hexadeca-1(10),3,5,11(15)-tetraene], the solubility at 24 h in series [1] is above 118 µg/mL.

In series [1], `Cc1ccccc1[C@H]1NCc2nnc(C)n2-c2sc3c(c21)C[C@H](C(=O)N1CCOCC1)C3` [Example 63, (9R,13S)-3-Methyl-9-(2-methylphenyl)-13-(morpholine-4-carbonyl)-16-thia-2,4,5,8-tetraazatetracyclo[8.6.0.0^2,6.0^11,15]-hexadeca-1(10),3,5,11(15)-tetraene] returned a solubility at 24 h above 110 µg/mL.

`CCc1nnc2n1-c1sc3c(c1[C@H](c1ccccc1Cl)NC2)C[C@@H](C(=O)N1CCOCC1)C3` [Example 70] returned an IC50 against human PAFR above 1000 nM.

`CCc1nnc2n1-c1sc3c(c1[C@@H](c1ccccc1Cl)NC2)C[C@@H](C(=O)N1CCOCC1)C3` [Example 71]: the IC50 on human PAFR was above 999 nM.

Take `Cc1nnc2n1-c1sc3c(c1[C@@H](c1ccccc1)NC2)C[C@@H](C(=O)N1CCOCC1)C3` [Example 75]: the IC50 against human PAFR was above 568 nM.

As for `Cc1nnc2n1-c1sc3c(c1[C@H](c1ccccc1)NC2)C[C@H](C(=O)N1CCOCC1)C3` [Example 76], 140 nM corresponded to half-maximal inhibition against human PAFR (IC50).

Regarding `Cc1nnc2n1-c1sc3c(c1[C@H](c1ccccc1)NC2)C[C@@H](C(=O)N1CCOCC1)C3` [Example 77], at human PAFR, the IC50 is above 1000 nM.

As for `Cc1nnc2n1-c1sc3c(c1[C@@H](c1ccccc1)NC2)C[C@H](C(=O)N1CCOCC1)C3` [Example 78], the IC50 on human PAFR was above 1000 nM.
